Measurements taken from patent US5010105A, “Antihypercholesterolemic compounds” (Merck & Co., Inc., priority 1990, dated 1991).

Tested on: HMG-CoA reductase
Test: intrinsic HMG-CoA reductase inhibition, in vitro protocol of J. Med. Chem., 28, p. 347-358 (1985)
Format: biochemical
Details: IC50 of test compound compared with compactin (mevastatin) determined simultaneously; compactin assigned a value of 100
Experimental: The intrinsic HMG-CoA reductase inhibition activity of the claimed compounds is measured in the in vitro protocol published in J. Med. Chem., 28, p. 347-358 (1985).
For estimation of relative inhibitory potencies, compactin (i.e., mevastatin) was assigned a value of 100 and the IC50 value of the test compound was compared with that of compactin determined simultaneously in the published in vitro protocol.

For CCC(C)(C)C(=O)O[C@H]1C[C@@H](C)C[C@]23C[C@H]2C(=O)[C@H](C)[C@H](CC[C@@H]2C[C@@H](O)CC(=O)O2)[C@@H]13 [Example 1, 6(R)-[2-[2(R),6(S)-dimethyl-8(S)-(2,2-dimethylbutyryloxy)-α-4,4a-methyleno-1,2,3,4,4a,5,6,7,8,8a(R)-decahydro-3-oxo-naphthyl-1(S)]ethyl]-4(R)-hydroxy-3,4,5,6-tetrahydro-2H-pyran-2-one], the relative potency was 186.
